Source: patent US20170008896A1, “HETEROARYL SYK INHIBITORS” (BOEHRINGER INGELHEIM INTERNATIONAL GMBH, priority 2014, published 2017)
Like-named read-outs stand apart in the source and are kept apart here.

Experiments:
[1] = Human Liver Microsomal Stability Test; type: in vitro ADME; conditions: human liver microsomes, 1 μM test compound, 37° C.; for micosomal stability Cl: Table 2a
Procedure: The metabolic degradation for a specific SYK-inhibitor is performed at 37° C. with pooled human liver microsomes (human liver microsomes are commercially available as “BD UltraPool™” by Corning Life Sciences, Fogostraat 12, 1060 LJ Amsterdam, The Netherlands). The final incubation volume of 100 μl per time point contains TRIS buffer pH 7.6 at RT (0.1 M), magnesium chloride (5 mM), microsomal protein (1 mg/ml) and the test compound at a final concentration of 1 μM.
Following a short preincubation period at 37° C., the reaction is initiated by addition of beta-nicotinamide adenine dinucleotide phosphate in its reduced form (NADPH, 1 mM) and terminated by transfering an aliquot into solvent after different time points. Additionally, the NADPH-independent degradation is monitored in incubations without NADPH, terminated at the last time point.
The quenched (terminated) incubations are then pelleted by centrifugation (10000 g, 5 min).
An aliquot of the supernatant is assayed by LC-MS/MS for the remaining amount of parent compound. The half-life (t1/2 INVITRO) is determined by the slope of the semilogarithmic plot of the concentration-time profile.
The intrinsic clearance (CL_[…]) is calculated by considering the amount of protein in the incubation:
CL_[…] [μl/min/mg protein]=(Ln 2/(t1/2 INVITRO [min] * protein content [mg/ml]))*1000
The protein content [mg/ml] was determined with the “Bicinchoninic Acid Kit” of Sigma Aldrich (commercially available).
The upscaled intrinsic Clearance (CL_UP_INT) is calculated by considering the liver weight [g liver/kg body weight] and the microsomal recovery [mg protein/g liver]:
CL_UP_INT [ml/min/kg]=0.001*CL_[…]*liver weight*microsomal recovery • with microsomal recovery=45 mg protein/g liver • with liver weight=25.7 g liver/kg body weight
The percent hepatic blood flow (% Qh) is finally calculated by considering the human liver blood flow Q [ml/min/kg]:
% Qh [%]=((Q*CL_UP_INT)/(Q+CL_UP_INT)/Q)*100 • with liver blood flow (Q)=20.7 ml/min/kg.

[2] = target: T1, Recombinant human Aurora B (amino acids 1-344), His tag (Homo sapiens, UniProt Q96GD4); assay: Aurora B Kinase Test (ADP Glo luminescence); type: biochemical
T1 construct: Recombinant human Aurora B (amino acids 1-344, clone number DU1773)
Procedure: The activity of the Aurora B kinase protein was determined using the ADP Glo® Luminescence Kinase test (Promega; V9103X).
Serial Dilution is done in 1:10 steps in 100% DMSO.
Then 20 μl Kinase detection mix (Detection Buffer #V913B Promega; Kinase Detection Substrate #V914B Promega) were added and incubated for 40 minutes at room temperature.
(§1) The output file of the reader is a csv file that contains the well number and measured RLU. For data evaluation and calculation, the measurement of the negative control was set as 0% ctrl and the measurement of the positive control was set as 100% ctrl. Based on this values the % value for the measurement of each substance concentration was calculated using an Assay Explorer software (Accelrys). Normally, the % ctrl values calculated are between 0% and 100% values but may also occur outside these limits in individual cases based on variability or compound characteristics. The IC50 values were calculated from the % ctrl values using Assay Explorer software.Calculation: [y=(a−d)/(1+(x/c)̂b)+d], a=low value, d=high value; x=conc M; c=IC50 M; b=hill; y=% ctrl.

[3] = target: T2, FLT3 (Homo sapiens, UniProt P36888); assay: FLT3 Kinase Test (Z'-LYTE); type: biochemical
T2 construct: purchased Invitrogen PV3182
T2 sequence (P36888 564-993 limits assumed): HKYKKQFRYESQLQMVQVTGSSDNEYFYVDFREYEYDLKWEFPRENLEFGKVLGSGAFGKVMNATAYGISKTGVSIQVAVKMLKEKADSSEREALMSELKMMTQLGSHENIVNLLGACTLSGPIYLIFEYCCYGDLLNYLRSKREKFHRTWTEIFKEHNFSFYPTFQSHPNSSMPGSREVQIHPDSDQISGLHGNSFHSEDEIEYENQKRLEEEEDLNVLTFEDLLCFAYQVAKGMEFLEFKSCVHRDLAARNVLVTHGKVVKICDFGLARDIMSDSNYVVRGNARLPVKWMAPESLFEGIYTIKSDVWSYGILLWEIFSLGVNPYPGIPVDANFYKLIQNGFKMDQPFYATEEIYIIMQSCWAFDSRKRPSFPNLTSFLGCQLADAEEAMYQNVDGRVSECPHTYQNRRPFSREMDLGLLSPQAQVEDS
Procedure: FLT3 is obtained from Invitrogen in 50 mM Tris (pH7.5); 100 mM NaCl; 0.05 mM EDTA, 0.05% NP-40, 2 mM DTT; 50% Glycerol #PV3182; Lot 286671; sequence see below). The enzyme is diluted to 720 nM (35 μg/ml) in enzyme dilution buffer and 10 μl aliquots are stored at −80° C.
The activity of FLT3 is measured using the Z′-LYTETM assay technology from Invitrogen (#PV3191)
The assay is performed in 384 black plates from Corning (#3676) in a final volume of 10 μl by adding 5 μl of kinase peptide mix and 2.5 μl of compound dilution. The reaction is started by addition of 2.5 μl of the 4×]ATP solution.
(§2) Positive controls are reaction mixtures containing no test compound; negative controls (blanks) are reaction mixtures containing no kinase. As a further control, the phosphopeptide solution is added to wells without kinase(=100% phosphorylation control). The non inhibited kinase reaction will result in a phosphorylation corresponding to 20%-30% of the phosphorylation control.
The reaction is performed for 1 h at room temperature before 5 μl of the development solution is added. After a further incubation for 1 h at room temperature 5 μl of the stop reagent is added. The plates are read on a Flex Station II 384 (Molecular Devices).
The output text file is evaluated in an “MS-Excel-VB-Makro” and “GraphPadPrism”(Version 5) (GraphPad Software Inc.) is used to calculate the results. Data for the inhibition of FLT3 are reported in M. data for the inhibition of the protease are reported in % CTL.

[4] = target: T3, Human GSK3beta (Homo sapiens, UniProt P49841); assay: GSK 3β Kinase-Test (Z'-LYTE); type: biochemical
T3 construct: purchased University Dundee/Scotland (Dr. James Hastie, Dept. of Biochemistry); host or cells: SF21 insect cells
Procedure: Human GSK3beta (expressed and purified from SF21 cells)is obtained from the University Dundee/Scotland (Dr. James Hastie—Dept. of Biochemistry) in 50 mM Tris (pH7.5); 150 mM NaCl; 0.1 mM EGTA, 270 mM Succrose, 0.1% R-mercaptoethanol, 1 mM benzamidine, 0.2 mM PMSF; sequence see below). The enzyme is diluted to 3.56 μM (168 μg/ml) in enzyme dilution buffer and 6 μl aliquots are stored at −80° C.
The activity of GSK3β kinase protein is measured using the Z′-LYTETM assay technology from Invitrogen (#PV3324).
The assay is performed in 384 black plates from Corning (#3676) in a final volume of 10 μl by adding 5 μl of kinase peptide mix and 2.5 μl of compound dilution. The reaction is started by addition of 2.5 μl of the 4× ATP solution.
as §2, with “ATP.” for “kinase.”, “kinase and without ATP(=100%” for “kinase(=100%”
The reaction is performed 1 h at room temperature. After 1 h 5 μl of the development solution is added. After a further incubation for 1 h at room temperature 5 μl of the stop reagent is added. Finally the plates are read on a Flex Station II 384 (Molecular Devices).
The output text file is evaluated in an “MS-Excel-VB-Makro” and “Graph Pad Prism”(Version 5) (GraphPad Software Inc.) is used to calculate the results. Data for the inhibition of GSK3beta are reported in M. data for the inhibition of the protease are reported in % CTL.

[5] = target: T4, Recombinant human Syk (amino acids 342-635), GST fusion (Homo sapiens, UniProt P43405); assay: Syk Kinase Test (Kinase Glo luminescence); type: biochemical; conditions: Table 1; read-out: SYK-inhibition IC50-value
T4 construct: Recombinant human Syk (amino acids 342-635); made in house
Procedure: as §1, with “measured relative light units (RLU).” for “measured RLU.”, “as 100%” for “as 0%”, “as 0%” for “as 100%”, “Explorer software.” for “Explorer software.Calculation: [y=(a−d)/(1+(x/c)̂b)+d], a=low value, d=high value; x=conc M; c=IC50 M; b=hill; y=% ctrl.”

[6] = patients with ITP (Podolanczuk et al; Blood (2009)); cited from earlier work
[7] = Table 2c, compounds of WO 2011/092128, read-out: IC50 (AURB-Inhibition)
[8] = Table 2c, compounds of WO 2011/092128, read-out: IC50 (FLT3-Inhibition)
[9] = Table 2c, compounds of WO 2011/092128, read-out: IC50 (GSK3beta-Inhibition)
[10] = Table 1, read-out: AURB-inhibition IC50-value
[11] = Table 2a, compounds of the invention, read-out: AURB-inhibition IC50-value
[12] = Table 1, read-out: FLT3-inhibition IC50-value
[13] = Table 2a, compounds of the invention, read-out: GSK3-beta inhib. IC50-value

T3 sequence (P49841 whole entry): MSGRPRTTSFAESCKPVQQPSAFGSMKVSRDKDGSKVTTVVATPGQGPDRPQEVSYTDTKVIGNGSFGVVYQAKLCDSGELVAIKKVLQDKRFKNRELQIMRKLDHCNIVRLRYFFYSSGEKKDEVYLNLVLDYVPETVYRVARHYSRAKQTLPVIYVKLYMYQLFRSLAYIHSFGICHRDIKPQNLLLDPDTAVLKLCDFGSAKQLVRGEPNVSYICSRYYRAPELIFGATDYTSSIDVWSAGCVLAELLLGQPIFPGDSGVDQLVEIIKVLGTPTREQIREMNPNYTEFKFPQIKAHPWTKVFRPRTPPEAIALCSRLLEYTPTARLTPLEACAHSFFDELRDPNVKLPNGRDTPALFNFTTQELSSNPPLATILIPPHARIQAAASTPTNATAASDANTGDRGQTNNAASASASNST
T1 sequence (Q96GD4 whole entry, the tested form may be a part): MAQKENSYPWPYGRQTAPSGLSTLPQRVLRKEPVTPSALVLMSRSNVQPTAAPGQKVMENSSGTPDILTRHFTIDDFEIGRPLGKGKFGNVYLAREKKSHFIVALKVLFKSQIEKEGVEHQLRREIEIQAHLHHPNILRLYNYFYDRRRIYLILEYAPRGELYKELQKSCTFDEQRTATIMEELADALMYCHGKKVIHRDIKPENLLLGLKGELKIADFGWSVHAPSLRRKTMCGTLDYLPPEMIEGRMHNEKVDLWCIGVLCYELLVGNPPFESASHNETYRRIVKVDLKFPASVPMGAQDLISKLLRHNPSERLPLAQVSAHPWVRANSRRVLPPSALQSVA

Compound	microsomal stability Cl ([1]; Table 2b) [% Qh]	IC50 [5] [µM]	IC50 [2, 10] [µM]	IC50 [2, 11] [µM]	IC50 [3, 12] [µM]	IC50 [4, 13] [µM]	micosomal stability Cl [1] [% Qh]	also measured
C[C@@H](Oc1nc(-c2ccc(N3CCOCC3)nc2)cc2ncccc12)[C@H]1CNC(=O)C1 [Example 45, reference compound]								IC50 [2, 7]: 0.086 µM; IC50 [3, 8]: 0.1 µM; IC50 [4, 9]: > 10 µM; microsomal stability Cl ([1]; Table 2c): 53 % Qh
Cc1nc2cc(-c3cnn(C(C)(C)C)c3)nc(O[C@H](C)[C@H]3CNC(=O)C3)n2n1 [Example 84, (4R)-4-[(1R)-1-[[7-(1-tert-Butylpyrazol-4-yl)-2-methyl-[1,2,4]triazolo[1,5-c]pyrimidin-5-yl]oxy]ethyl]pyrrolidin-2-one]		0.637	> 50	> 50	> 50	> 10	<23	IC50 ([3]; Table 2a, compounds of the invention, read-out: FLT3-inhibition IC50-value): > 50 µM
COc1cc(Nc2ncc(F)c(Nc3ccc4c(n3)N(COP(=O)(O)O)C(=O)C(C)(C)O4)n2)cc(OC)c1OC [R788 (R406)]								platelet counts [6]: improved platelet counts
Cc1nc2cc(-c3cnn(C(C)(C)C)c3)cc(O[C@H](C)[C@H]3CNC(=O)C3)c2[nH]1 [Example 6, (4R)-4-[(1R)-1-[[6-(1-tert-Butylpyrazol-4-yl)-2-methyl-1H-benzimidazol-4-yl]oxy]ethyl]pyrrolidin-2-one]		0.151	> 50	> 50	35.8	> 10	<23	
C[C@@H](Oc1nc(-c2ccc(C(F)(F)F)nc2)cc2ncccc12)[C@H]1CNC(=O)C1 [Example 3, reference compound]								IC50 [2, 7]: 1.04 µM; IC50 [3, 8]: 1.82 µM; IC50 [4, 9]: > 10 µM; microsomal stability Cl ([1]; Table 2c): 24 % Qh
Cc1cc2c(O[C@H](C)[C@H]3CNC(=O)C3)cc(-c3cnn(C(C)(C)C)c3)cn2n1 [Example 34, (4R)-4-[(1R)-1-[6-(1-tert-Butylpyrazol-4-yl)-2-methyl-pyrazolo[1,5-a]pyridin-4-yl]oxyethyl]pyrrolidin-2-one]		0.0122	> 50	> 50	7.93	> 10	<23	

More lines, main results first:

microsomal stability Cl ([1]; Table 2b) [% Qh]	IC50 [5] [µM]	IC50 [2, 10] [µM]	IC50 [2, 11] [µM]	IC50 [3, 12] [µM]	IC50 [4, 13] [µM]	micosomal stability Cl [1] [% Qh]	Compound	also measured
<23							Cc1c(-c2cc(O[C@H](C)[C@H]3CNC(=O)C3)c3cccnc3c2)cnn1C [Example 112]	
26							CCCn1cc(-c2cc(O[C@H](C)[C@H]3CNC(=O)C3)c3cccnc3c2)cn1 [Example 114]	
<23							CC(C)n1cc(-c2cc(O[C@H](C)[C@H]3CNC(=O)C3)c3cccnc3c2)cn1 [Example 115]	
